Data as given in US10202361B2, “Pyridazinones as herbicides” (E I DU PONT DE NEMOURS AND COMPANY, priority 2014, dated 2019).

Legend:
Experiment in all cases: Test D pre-/postemergence controlled growth environment herbicide test
Format in all cases: in vivo
Details in all cases: scale 0 to 100
[1] = system: field violet (Viola arvensis)
How it was run: (§1)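 Preemergence: seeds sown in silt loam soil and sprayed with test chemicals in a non-phytotoxic solvent mixture containing surfactant. Postemergence: plants grown in peat/vermiculite planting medium and sprayed at 2 to 18 cm (1- to 4-leaf stage). Visual rating versus controls after 14 to 21 d, 0 (no effect) to 100 (complete control).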

[2] = system: canarygrass (Phalaris minor)
How it was run: as §1

[3] = system: oat, wild (wild oat, Avena fatua)
How it was run: as §1

[4] = system: deadnettle (henbit deadnettle, Lamium amplexicaule)
How it was run: as §1

[5] = system: oilseed rape (Brassica napus)
How it was run: as §1

[6] = system: ryegrass, Italian (Italian ryegrass, Lolium multiflorum)
How it was run: as §1

[7] = system: barley, winter (winter barley, Hordeum vulgare)
How it was run: as §1

kochia (Kochia scoparia) = system: kochia (Kochia scoparia)
How it was run: as §1

[8] = system: foxtail, green (green foxtail, Setaria viridis)
How it was run: as §1

[9] = system: downy bromegrass (Bromus tectorum)
How it was run: as §1

[10] = system: barley, spring (spring barley, Hordeum vulgare)
How it was run: as §1

Cc1cc(=O)n(-c2ccc(C(F)(F)F)cc2)nc1Cc1ccnc(C(F)(F)F)c1 [Compound 2, 5-methyl-2-[4-(trifluoromethyl)phenyl]-6-[[2-(trifluoromethyl)-4-pyridinyl]methyl]-3(2H)-pyridazinone]
Plant response rating ([1]; Postemergence, 31 g ai/ha): 50
Plant response rating ([1]; Postemergence, 62 g ai/ha): 90
Plant response rating ([1]; Postemergence, 125 g ai/ha): 100
Plant response rating ([1]; Postemergence, 250 g ai/ha): 100
Plant response rating ([1]; Postemergence, 500 g ai/ha): 100
Plant response rating ([1]; Preemergence, 31 g ai/ha): 60
Plant response rating ([1]; Preemergence, 62 g ai/ha): 80
Plant response rating ([1]; Preemergence, 125 g ai/ha): 90
Plant response rating ([1]; Preemergence, 250 g ai/ha): 100
Plant response rating ([1]; Preemergence, 500 g ai/ha): 100
Plant response rating ([2]; Postemergence, 31 g ai/ha): 20
Plant response rating ([2]; Postemergence, 62 g ai/ha): 20
Plant response rating ([2]; Postemergence, 125 g ai/ha): 20
Plant response rating ([2]; Postemergence, 250 g ai/ha): 20
Plant response rating ([2]; Postemergence, 500 g ai/ha): 25
Plant response rating ([2]; Preemergence, 31 g ai/ha): 0
Plant response rating ([2]; Preemergence, 62 g ai/ha): 25
Plant response rating ([2]; Preemergence, 125 g ai/ha): 40
Plant response rating ([2]; Preemergence, 250 g ai/ha): 40
Plant response rating ([2]; Preemergence, 500 g ai/ha): 85
Plant response rating ([3]; Postemergence, 31 g ai/ha): 10
Plant response rating ([3]; Postemergence, 62 g ai/ha): 10
Plant response rating ([3]; Postemergence, 125 g ai/ha): 10
Plant response rating ([3]; Postemergence, 250 g ai/ha): 15
Plant response rating ([3]; Postemergence, 500 g ai/ha): 30
Plant response rating ([3]; Preemergence, 31 g ai/ha): 0
Plant response rating ([3]; Preemergence, 62 g ai/ha): 0
Plant response rating ([3]; Preemergence, 125 g ai/ha): 35
Plant response rating ([3]; Preemergence, 250 g ai/ha): 80
Plant response rating ([3]; Preemergence, 500 g ai/ha): 80
Plant response rating ([4]; Postemergence, 31 g ai/ha): 40
Plant response rating ([4]; Postemergence, 62 g ai/ha): 40
Plant response rating ([4]; Postemergence, 125 g ai/ha): 70
Plant response rating ([4]; Postemergence, 250 g ai/ha): 75
Plant response rating ([4]; Postemergence, 500 g ai/ha): 90
Plant response rating ([4]; Preemergence, 31 g ai/ha): 100
Plant response rating ([4]; Preemergence, 62 g ai/ha): 100
Plant response rating ([4]; Preemergence, 125 g ai/ha): 100
Plant response rating ([4]; Preemergence, 250 g ai/ha): 100
Plant response rating ([4]; Preemergence, 500 g ai/ha): 100
Plant response rating ([5]; Postemergence, 31 g ai/ha): 60
Plant response rating ([5]; Postemergence, 62 g ai/ha): 75
Plant response rating ([5]; Postemergence, 125 g ai/ha): 80
Plant response rating ([5]; Postemergence, 250 g ai/ha): 98
Plant response rating ([5]; Postemergence, 500 g ai/ha): 100
Plant response rating ([5]; Preemergence, 31 g ai/ha): 20
Plant response rating ([5]; Preemergence, 62 g ai/ha): 20
Plant response rating ([5]; Preemergence, 125 g ai/ha): 50
Plant response rating ([5]; Preemergence, 250 g ai/ha): 95
Plant response rating ([5]; Preemergence, 500 g ai/ha): 95
Plant response rating ([6]; Postemergence, 31 g ai/ha): 0
Plant response rating ([6]; Postemergence, 62 g ai/ha): 10
Plant response rating ([6]; Postemergence, 125 g ai/ha): 15
Plant response rating ([6]; Postemergence, 250 g ai/ha): 20
Plant response rating ([6]; Postemergence, 500 g ai/ha): 25
Plant response rating ([6]; Preemergence, 31 g ai/ha): 0
Plant response rating ([6]; Preemergence, 62 g ai/ha): 0
Plant response rating ([6]; Preemergence, 125 g ai/ha): 25
Plant response rating ([6]; Preemergence, 250 g ai/ha): 30
Plant response rating ([6]; Preemergence, 500 g ai/ha): 35
Plant response rating ([7]; Postemergence, 31 g ai/ha): 10
Plant response rating ([7]; Postemergence, 62 g ai/ha): 15
Plant response rating ([7]; Postemergence, 125 g ai/ha): 15
Plant response rating ([7]; Postemergence, 250 g ai/ha): 20
Plant response rating ([7]; Postemergence, 500 g ai/ha): 25
Plant response rating ([7]; Preemergence, 31 g ai/ha): 0
Plant response rating ([7]; Preemergence, 62 g ai/ha): 0
Plant response rating ([7]; Preemergence, 125 g ai/ha): 30
Plant response rating ([7]; Preemergence, 250 g ai/ha): 30
Plant response rating ([7]; Preemergence, 500 g ai/ha): 50
Plant response rating (kochia (Kochia scoparia); Postemergence, 31 g ai/ha): 40
Plant response rating (kochia (Kochia scoparia); Postemergence, 62 g ai/ha): 70
Plant response rating (kochia (Kochia scoparia); Postemergence, 125 g ai/ha): 80
Plant response rating (kochia (Kochia scoparia); Postemergence, 250 g ai/ha): 85
Plant response rating (kochia (Kochia scoparia); Postemergence, 500 g ai/ha): 85
Plant response rating (kochia (Kochia scoparia); Preemergence, 31 g ai/ha): 20
Plant response rating (kochia (Kochia scoparia); Preemergence, 62 g ai/ha): 30
Plant response rating (kochia (Kochia scoparia); Preemergence, 125 g ai/ha): 100
Plant response rating (kochia (Kochia scoparia); Preemergence, 250 g ai/ha): 100
Plant response rating (kochia (Kochia scoparia); Preemergence, 500 g ai/ha): 100
Plant response rating ([8]; Postemergence, 31 g ai/ha): 0
Plant response rating ([8]; Postemergence, 62 g ai/ha): 5
Plant response rating ([8]; Postemergence, 125 g ai/ha): 40
Plant response rating ([8]; Postemergence, 250 g ai/ha): 45
Plant response rating ([8]; Postemergence, 500 g ai/ha): 75
Plant response rating ([8]; Preemergence, 31 g ai/ha): 20
Plant response rating ([8]; Preemergence, 125 g ai/ha): 85
Plant response rating ([8]; Preemergence, 250 g ai/ha): 100
Plant response rating ([8]; Preemergence, 500 g ai/ha): 100
Plant response rating ([9]; Postemergence, 31 g ai/ha): 10
Plant response rating ([9]; Postemergence, 62 g ai/ha): 30
Plant response rating ([9]; Postemergence, 125 g ai/ha): 30
Plant response rating ([9]; Postemergence, 250 g ai/ha): 40
Plant response rating ([9]; Postemergence, 500 g ai/ha): 45
Plant response rating ([9]; Preemergence, 31 g ai/ha): 0
Plant response rating ([9]; Preemergence, 62 g ai/ha): 0
Plant response rating ([9]; Preemergence, 125 g ai/ha): 0
Plant response rating ([9]; Preemergence, 250 g ai/ha): 20
Plant response rating ([9]; Preemergence, 500 g ai/ha): 25
Plant response rating ([10]; Postemergence, 31 g ai/ha): 10
Plant response rating ([10]; Postemergence, 62 g ai/ha): 10
Plant response rating ([10]; Postemergence, 125 g ai/ha): 10
Plant response rating ([10]; Postemergence, 250 g ai/ha): 15
Plant response rating ([10]; Postemergence, 500 g ai/ha): 25
Plant response rating ([10]; Preemergence, 31 g ai/ha): 0
Plant response rating ([10]; Preemergence, 62 g ai/ha): 0
Plant response rating ([10]; Preemergence, 125 g ai/ha): 0
Plant response rating ([10]; Preemergence, 250 g ai/ha): 25
Plant response rating ([10]; Preemergence, 500 g ai/ha): 50
